Columns and labels:
Russian thistle = assay: Test D postemergence; type: in vivo, Salsola kali
Description: (§1) Seeds of plant species selected from bluegrass (annual bluegrass, Poa annua), blackgrass (Alopecurus myosuroides), canarygrass (littleseed canarygrass, Phalaris minor), chickweed (common chickweed, Stellaria media), galium (catchweed bedstraw, Galium aparine), bromegrass, downy (downy bromegrass, Bromus tectorum), field poppy (Papaver rhoeas), field violet (Viola arvensis), green foxtail (Setaria viridis), deadnettle (henbit deadnettle, Lamium amplexicaule), Italian ryegrass (Lolium multiflorum), kochia (Kochia scoparia), lambsquarters (Chenopodium album), oilseed rape (Brassica napus), pigweed (Amaranthus retroflexus), chamomile (scentless chamomile, Matricaria inodora), Russian thistle (Salsola kali), speedwell (bird's-eye speedwell, Veronica persica), spring barley (Hordeum vulgare), spring wheat (Triticum aestivum), wild buckwheat (Polygonum convolvulus), wild mustard (Sinapis arvensis), wild oat (Avena fatua), wild radish (Raphanus raphanistrum), windgrass (Apera spica-venti), winter barley (Hordeum vulgare), and winter wheat (Triticum aestivum) were planted into a silt loam soil and treated preemergence with test chemicals formulated in a non-phytotoxic solvent mixture which included a surfactant.
(§2) At the same time, these species were planted in pots containing Redi-Earth® planting medium (Scotts Company, 14111 Scottslawn Road, Marysville, Ohio 43041) comprising spaghnum peat moss, vermiculite, wetting agent and starter nutrients and treated with postemergence applications of the test chemicals formulated in the same manner. Plants ranged in height from 2 to 18 cm (1- to 4-leaf stage). Treated plants and controls were maintained in a controlled growth environment for 7 to 21 days after which time all species were compared to controls and visually evaluated. Plant response ratings, summarized in Table D, are based on a scale of 0 to 100 where 0 is no effect and 100 is complete control. A dash (-) response means no test result.

spring wheat = assay: Test D postemergence; type: in vivo, Triticum aestivum; settings: for plant injury at 16 g/ha / plant injury at 31 g/ha / plant injury at 62 g/ha / plant injury at 125 g/ha / plant injury at 250 g/ha: Triticum aestivum, post-emergence; for plant injury at 16 g/ha: scale 0-100, read-out: Plant response rating, Wheat, Spring; for plant injury at 31 g/ha / plant injury at 62 g/ha / plant injury at 125 g/ha / plant injury at 250 g/ha: read-out: Plant response rating, Wheat, Spring
Description: as §1, §2

winter wheat = assay: Test D postemergence; type: in vivo, Triticum aestivum; settings: for plant injury at 16 g/ha / plant injury at 31 g/ha / plant injury at 62 g/ha / plant injury at 125 g/ha / plant injury at 250 g/ha: Triticum aestivum, post-emergence; for plant injury at 16 g/ha: scale 0-100, read-out: Plant response rating, Wheat, Winter; for plant injury at 31 g/ha / plant injury at 62 g/ha / plant injury at 125 g/ha / plant injury at 250 g/ha: read-out: Plant response rating, Wheat, Winter
Description: as §1, §2

cocklebur = assay: Test C postemergence; type: in vivo, Xanthium strumarium; settings: for Plant response rating (0 to 100), Cocklebur: postemergence; for Plant response rating, Cocklebur: Postemergence, scale 0 to 100 (0 no effect, 100 complete control)
Description: (§3) Seeds of plant species selected from blackgrass (Alopecurus myosuroides), Italian ryegrass (Lolium multiflorum), wheat, winter (winter wheat, Triticum aestivum), galium (catchweed bedstraw, Galium aparine), corn (Zea mays), large (Lg) crabgrass (Digitaria sanguinalis), giant foxtail (Setaria faberii), johnsongrass (Sorghum halepense), lambsquarters (Chenopodium album), morningglory (Ipomoea coccinea), yellow nutsedge (Cyperus esculentus), pigweed (Amaranthus retroflexus), ragweed (common ragweed, Ambrosia elatior), soybean (Glycine max), barnyardgrass (Echinochloa crus-galli), oilseed rape (Brassica napus), waterhemp (common waterhemp, Amaranthus rudis), kochia (Kochia scoparia), wild oat (Avena fatua), surinam grass (Brachiaria decumbens), foxtail, green (green foxtail, Setaria viridis), goosegrass (Eleusine indica), bromegrass, downy (downy bromegrass, Bromus tectorum), nightshade (eastern black nightshade, Solanum ptycanthum), cocklebur (common cocklebur, Xanthium strumarium), cupgrass, woolly (woolly cupgrass, Eriochloa villosa), bermudagrass (Cynodon dactylon), sunflower, (common oilseed sunflower, Helianthus annuus), Russian thistle (Salsola kali), and velvetleaf (Abutilon theophrasti) were planted into a blend of loam soil and sand and treated preemergence with test chemicals formulated in a non-phytotoxic solvent mixture which included a surfactant.
(§4) At the same time, plants selected from these crop and weed species and also barley, winter (winter barley, Hordeum vulgare), windgrass (Apera spica-venti), chickweed (common chickweed, Stellaria media), deadnettle (henbit deadnettle, Lamium amplexicaule), and canarygrass (littleseed canarygrass, Phalaris minor) were planted in pots containing Redi-Earth® planting medium (Scotts Company, 14111 Scottslawn Road, Marysville, Ohio 43041) comprising spaghnum peat moss, vermiculite, wetting agent and starter nutrients and treated with postemergence applications of test chemicals formulated in the same manner. Plants ranged in height from 2 to 18 cm (1- to 4-leaf stage) for postemergence treatments. Treated plants and controls were maintained in a greenhouse for 13 to 15 days, after which time all species were compared to controls and visually evaluated. Plant response ratings, summarized in Table C, are based on a scale of 0 to 100 where 0 is no effect and 100 is complete control. A dash (-) response means no test result.

cupgrass, woolly [1] = assay: Test C postemergence; type: in vivo, Eriochloa villosa; settings: for Plant response rating (0 to 100), Cupgrass, Woolly: postemergence; for Plant response rating, Cupgrass, Woolly: Postemergence, scale 0 to 100 (0 no effect, 100 complete control)
Description: as §3, §4

cupgrass, woolly [2] = assay: Test C preemergence; type: in vivo, Eriochloa villosa; settings: for Cupgrass, Woolly plant response rating: preemergence, scale 0 (no effect) to 100 (complete control); for Plant response rating, Cupgrass, Woolly: Preemergence, 31 g ai/ha, scale 0 to 100, 0 no effect, 100 complete control
Description: as §3, §4

[3] = 31 g ai/ha, scale 0 to 100 (0 no effect, 100 complete control)
[4] = 62 g ai/ha, scale 0 to 100 (0 no effect, 100 complete control)
[5] = 125 g ai/ha, scale 0 to 100 (0 no effect, 100 complete control)
[6] = 250 g ai/ha, scale 0 to 100 (0 no effect, 100 complete control)

SMILES	Plant response rating, Russian Thistle (Russian thistle; [4])	Plant response rating, Russian Thistle (Russian thistle; [5])	Plant response rating, Russian Thistle (Russian thistle; [6])	plant injury at 16 g/ha (spring wheat; 16 g ai/ha)	plant injury at 31 g/ha (spring wheat; [3])	plant injury at 62 g/ha (spring wheat; [4])	plant injury at 125 g/ha (spring wheat; [5])	plant injury at 250 g/ha (spring wheat; [6])	plant injury at 16 g/ha (winter wheat; 16 g ai/ha)	plant injury at 31 g/ha (winter wheat; [3])	plant injury at 62 g/ha (winter wheat; [4])	plant injury at 125 g/ha (winter wheat; [5])	plant injury at 250 g/ha (winter wheat; [6])	further results
Clc1cnc(Oc2ccccc2-n2cc(Cl)cn2)nc1 [Compound 3]	10	10	20	–	–	–	–	–	–	–	–	–	–	Plant response rating, Russian Thistle (Russian thistle; 16 g ai/ha, scale 0-100): 0; Plant response rating, Russian Thistle (Russian thistle; [3]): 10; Plant response rating, Wheat, Spring (spring wheat; 16 g ai/ha, scale 0-100): 60; Plant response rating, Wheat, Spring (spring wheat; [3]): 0; Plant response rating, Wheat, Spring (spring wheat; [4]): 0; Plant response rating, Wheat, Spring (spring wheat; [5]): 0; Plant response rating, Wheat, Spring (spring wheat; [6]): 0; Plant response rating, Wheat, Winter (winter wheat; 16 g ai/ha, scale 0-100): 65; Plant response rating, Wheat, Winter (winter wheat; [3]): 0; Plant response rating, Wheat, Winter (winter wheat; [4]): 0; Plant response rating, Wheat, Winter (winter wheat; [5]): 0; Plant response rating, Wheat, Winter (winter wheat; [6]): 0
Fc1cnc(Oc2ccccc2-n2cc(Br)cn2)nc1 [Compound 10, 2-[2-(4-bromo-1H-pyrazol-1-yl)phenoxy]-5-fluoropyrimidine]	–	–	–	–	–	–	–	–	–	–	–	–	–	Plant response rating (0 to 100), Cocklebur (cocklebur; 125 g ai/ha): 55; Plant response rating (0 to 100), Cocklebur (cocklebur; 250 g ai/ha): 100; Plant response rating, Cocklebur (cocklebur; 31 g ai/ha, 13 to 15 days): 45; Plant response rating, Cocklebur (cocklebur; 62 g ai/ha): 55; Plant response rating (0 to 100), Cupgrass, Woolly (cupgrass, woolly [1]; 125 g ai/ha): 5; Plant response rating (0 to 100), Cupgrass, Woolly (cupgrass, woolly [1]; 250 g ai/ha): 15; Plant response rating, Cupgrass, Woolly (cupgrass, woolly [1]; 31 g ai/ha, 13 to 15 days): 0; Plant response rating, Cupgrass, Woolly (cupgrass, woolly [1]; 62 g ai/ha): 5
FC(F)(F)c1cnn(-c2ccccc2Oc2ncc(Cl)cn2)c1 [Compound 16]	–	–	–	–	–	–	–	–	–	–	–	–	–	Cupgrass, Woolly plant response rating (cupgrass, woolly [2]; 62 g ai/ha): 90; Cupgrass, Woolly plant response rating (cupgrass, woolly [2]; 125 g ai/ha): 98; Cupgrass, Woolly plant response rating (cupgrass, woolly [2]; 250 g ai/ha): 98; Plant response rating, Cupgrass, Woolly (cupgrass, woolly [2]): 75; Plant response rating (0 to 100), Cocklebur (cocklebur; 250 g ai/ha): 80; Plant response rating, Cocklebur (cocklebur; 31 g ai/ha, 13 to 15 days): 50; Plant response rating, Cocklebur (cocklebur; 62 g ai/ha): 55; Plant response rating (0 to 100), Cupgrass, Woolly (cupgrass, woolly [1]; 125 g ai/ha): 20; Plant response rating (0 to 100), Cupgrass, Woolly (cupgrass, woolly [1]; 250 g ai/ha): 30; Plant response rating, Cupgrass, Woolly (cupgrass, woolly [1]; 31 g ai/ha, 13 to 15 days): 5; Plant response rating, Cupgrass, Woolly (cupgrass, woolly [1]; 62 g ai/ha): 15
FC(F)(F)c1cnn(-c2ccccc2Oc2ncc(Br)cn2)c1 [Compound 18, 5-bromo-2-[2-[4-(trifluoromethyl)-1H-pyrazol-1-yl]phenoxy]pyrimidine]	50	60	100	10%	10%	15%	20%	25%	5%	5%	10%	15%	20%	Cupgrass, Woolly plant response rating (cupgrass, woolly [2]; 62 g ai/ha): 55; Cupgrass, Woolly plant response rating (cupgrass, woolly [2]; 125 g ai/ha): 98; Cupgrass, Woolly plant response rating (cupgrass, woolly [2]; 250 g ai/ha): 100; Plant response rating, Cupgrass, Woolly (cupgrass, woolly [2]): 40; Plant response rating, Russian Thistle (Russian thistle; 16 g ai/ha, scale 0-100): 10; Plant response rating, Russian Thistle (Russian thistle; [3]): 5
N#Cc1cccc(Oc2ncc(Cl)cn2)c1-n1cc(C(F)(F)F)cn1 [Compound 58, 3-[(5-chloro-2-pyrimidinyl)oxy]-2-[4-(trifluoromethyl)-1H-pyrazol-1-yl]benzonitrile]	–	–	–	–	10%	15%	20%	35%	–	15%	20%	25%	40%	–
N#Cc1cccc(Oc2ncc(Br)cn2)c1-n1cc(C(F)(F)F)cn1 [Compound 59, 3-[(5-bromo-2-pyrimidinyl)oxy]-2-[4-(trifluoromethyl)-1H-pyrazol-1-yl]benzonitrile]	–	–	–	–	10%	15%	20%	25%	–	10%	15%	20%	20%	–
FC(F)(F)COc1cnn(-c2ccccc2Oc2ncc(Cl)cn2)c1 [Compound 138, 5-chloro-2-[2-[4-(2,2,2-trifluoroethoxy)-1H-pyrazol-1-yl]phenoxy]pyrimidine]	–	–	–	5%	5%	5%	15%	–	0%	0%	5%	15%	–	–
FC(F)(F)c1cn(-c2ccccc2Oc2ncc(Cl)cn2)nn1 [Compound 166, 5-chloro-2-[2-[4-(trifluoromethyl)-1H-1,2,3-triazol-1-yl]phenoxy]pyrimidine]	–	–	–	5%	10%	25%	35%	–	5%	15%	30%	40%	–	–
Fc1cccc(Oc2ncc(Cl)cn2)c1-n1cc(Br)cn1 [Compound 178, 2-[2-(4-bromo-1H-pyrazol-1-yl)-3-fluorophenoxy]-5-chloropyrimidine]	–	–	–	0%	0%	0%	5%	–	0%	0%	0%	10%	–	–
N#Cc1cccc(Oc2ncc(Cl)cn2)c1-n1cc(-n2ccc(C(F)(F)F)n2)cn1 [Compound 284]	75	85	95	–	–	–	–	–	–	–	–	–	–	Plant response rating, Russian Thistle (Russian thistle; 31 g ai/ha, scale 0-100): 65; Plant response rating, Wheat, Spring (spring wheat; 31 g ai/ha, scale 0-100): 15; Plant response rating, Wheat, Spring (spring wheat; [4]): 25; Plant response rating, Wheat, Spring (spring wheat; [5]): 30; Plant response rating, Wheat, Spring (spring wheat; [6]): 35; Plant response rating, Wheat, Winter (winter wheat; 31 g ai/ha, scale 0-100): 10; Plant response rating, Wheat, Winter (winter wheat; [4]): 25; Plant response rating, Wheat, Winter (winter wheat; [5]): 20; Plant response rating, Wheat, Winter (winter wheat; [6]): 25

Source: US9695155B2, “Herbicidal substituted pyrimidinyloxy benzene compounds” (E. I. DU PONT DE NEMOURS AND COMPANY, priority 2013, dated 2017)
